Test results: patent publication US20140314854A1, “METHODS AND COMPOSITIONS FOR RNAi-BASED CANCER TREATMENT” (Silenseed Ltd., priority 2013, published 2014)

Assays:
[1] = system: Panc1 cells; assay type: cell-based, human
Description: FIG. 18. Chart showing viability of Panc1 cells. Vertical axis: viability as a percentage of the viability of mock-transfected cells, 72 hours following transfection with the indicated siRNA. Dotted line indicates 50% reduction in viability. For all the differences, p<0.05 relative to the mock-transfected cells.
The effect of siRNA-mediated down-regulation of EMT-related genes on viability of Panc1 cancer cells was measured as follows: siRNAs targeting the indicated genes, namely SLUG (SNAI2), SNAI1 TWIST, Zeb1, Zeb2, Goosecoid, and E12 (TCF3), were designed and synthetized by IDT-Syntezza, using 2 different siRNA's per target (Table 3). Panc1 cells were transfected with the siRNAs using Lipofectamine®. 72 hrs post-transfection, cell viability was tested by Methylene blue (MB) assay. Gemzar® was used as a positive control for cell killing.

[2] = system: PancO2 cell; assay: PancO2 cell growth in vitro; assay type: cell-based, mouse
[3] = system: normal mice; assay: Toxicity study of LODER-driven siRNA in normal mice; assay type: in vivo; conditions: intraperitoneally injected
Description: (§1) To study the toxic potential of the LODER-driven siRNA, we compared the effect of the siG12D LODER (16, 32 and 64 μg siG12D/kg weight) to that of the empty LODER and to sham-operated or untreated animals. LODERs were implanted into the pancreas of normal mice and rats, both males and females of both species. In parallel, the same and higher doses of siG12D were intraperitoneally injected into normal mice and rats (16, 160 and 320 μg siG12D/kg weight). The duration of this study was 2 weeks in mice and 8 weeks in rats. […] Based on the lack of adverse reaction following siRNA treatment, the maximum dose of 0.32 mg siRNA/kg body weight was considered as not constituting an acute toxicity risk.

[4] = system: normal rats; assay: Toxicity study of LODER-driven siRNA in normal rats; assay type: in vivo; conditions: intraperitoneally injected
Description: as §1

[5] = system: Panc-1 cells; assay: Scratch assay; assay type: cell-based, human; conditions: after 24 hours, light microscopy
Description: FIG. 7. siG12D reduces EMT in Panc1 cells. A. Migration assay. Panc-1 cells were transfected with siG12D or non-targeting control (scrambled) or were treated with TGFβ (positive control). The migration ability was assessed using a modified Boyden chamber assay. The percentage of migrated cells relative to untreated cells is presented. B. Scratch assay. Panc-1 cells were mock-transfected or transfected in vitro with scrambled siRNA or siG12D, then were seeded in 6 W plates. After 24 hours, the cells were reseeded in 24 W plates to form a confluent culture. One day after reseeding, the cells were scratched with a plastic tip. […]
FIG. 8. Light microscopy images of migration of siG12D-DDD treated cells in a scratch assay, showing the inhibitory effect of siG12D on cellular migration.
In order to study the effects of siG12D on the EMT process and its consequent increased cellular migration and motility, we conducted a series of experiments in which we examined different aspects of this process. We analyzed the migration characteristics of Panc1 cells following transfection with siG12D or scrambled siRNA, using the scratch and transwell-migration assays. TGF-β was used as a positive control. […] To test migration through a scratch assay. […]

[6] = system: K-ras mRNA; conditions: read-out: K-ras mRNA levels, half-maximal inhibitory concentration (IC50); Panc1 cells transfected; Real-Time PCR, HPRT and UBC endogenous controls
Description: Panc1 cells, human pancreatic carcinoma cells that carry the […] in the K-ras gene, were mock-transfected or transfected with siG12D or control scrambled siRNA (si-scr). The relative K-ras mRNA levels were assessed by Real-Time PCR, with Hypoxantine PhosphoRybosyl Transferase (HPRT) and Ubiquitin C (UBC) used as endogenous controls.

[7] = system: Akt; assay: Orthotopic Panc1-LUC tumors, Akt immunohistochemistry; assay type: in vivo, human; conditions: 39 days post-treatment, IH
Description: For this purpose, Panc1-LUC or Capan1-LUC cells were injected into the tail of the mouse pancreas via an incision. Tumor development was assessed by in vivo Luciferase activity. […] Two LODERs were stitched to the pancreatic tumor via a laparotomy.
Here, tumor tissues were tested from mice bearing pancreatic Panc1-LUC-derived tumors from 4 treatment groups: untreated, injected with siG12D or implanted with empty LODERs or siG12D LODERs. Thirty nine days post-treatment, we performed IH analysis of tumor tissues for Akt and ERK.

[8] = system: P-Erk; assay: Western blot of KRAS downstream effector P-Erk; assay type: cell-based, human; conditions: 36 hrs after transfection, normalized to β-actin
Source text: (§2) FIG. 19. Treatment with anti-k-ras siRNA reduces levels of downstream effector proteins. Panc1 cells were left untreated (u/t) or transiently transfected with siG12D, non-targeting scrambled siRNA (si-scr) or mock transfected. A. Shown are representative blots of KRAS, P-Erk, P-Akt, and β-actin. B. Quantitation of protein expression, expressed as average±S.E.M. Numbers were normalized to the level of β-actin, then the resulting number was normalized to the expression in scrambled siRNA-transfected cells, which was set as 100%. Student's t-test was used to calculate(p) compared to mock-transfected cells.
(§3) To confirm the specific action of siG12D on the K-ras signaling pathway, KRAS, level of activation of the KRAS downstream effectors ERK and Akt was measured following treatment with siG12D. […] 36 hrs after transfection, cells were lysed and relative levels of KRAS, P-Erk and P-Akt proteins were assessed by Western blot analysis. […]
(§4) Western blot assays were carried by homogenizing cells in lysis buffer A (0.25M sucrose, 20 mM Tris pH 7.6, 1.5 mM MgCl2, 10% glycerol, 1 mM EDTA and “cOmplete mini” protein inhibitor cocktail (Roche Diagnostics)), incubated on ice for 10 min, centrifuged at 12,000 rpm for 15 min at 4° C., and supernatants were collected. […] Results are expressed as ratio of protein of interest/β-actin to correct for amount of protein loaded in each sample.

[9] = system: Zeb1, Slug, E-Cadherin; assay: Expression of genes characteristic of EMT; assay type: cell-based, human; conditions: in vitro, normalized to the untreated cells
Source text: FIG. 9. Effect of the siG12DDDD on expression levels of metastasis-facilitating genes. Expression levels are normalized to the untreated cells.
Treatment of siG12D in vitro was followed by measurement of genes whose expression (high or low) is characteristic of EMT.

[10] = system: Panc1 cells; assay: Migration assay (modified Boyden chamber); assay type: cell-based, human; conditions: transfected cells, relative to untreated cells
[11] = system: P-Akt; assay: Western blot of KRAS downstream effector P-Akt; assay type: cell-based, human; conditions: 36 hrs after transfection, normalized to β-actin
Source text: as §2, §3, §4

[12] = system: Panc1 cells; assay: Cell viability by Methylene Blue test, siRNA alone and with Gemzar; assay type: cell-based, human; conditions: 72 h; 1 hr of treatment with 10 μM Gemzar after transfection
Description: FIG. 15. Gemzar® enhances siG12D-DDD effect. Panc1 cells were transfected using Lipofectamine™ with unmodified and modified siG12D and a scrambled (non-targeting) siRNA control molecule or were mock transfected (no siRNA). Cell viability was assessed 72 hrs post-transfection by the Methylene Blue (MB) test. Additional groups were transfected as described above, followed by 1 hr of treatment with 10 μM Gemzar®. The numbers 1-4 in the last column relate to the percent of inhibition of cellular growth, wherein the inhibition seen with the unmodified siRNA was assigned the value of 100%. 4, 3, 2, and 1 refer respectively to 75-100%, 50-75%, 25-50%, and 0-25% of the inhibition seen with the unmodified siRNA.
Experimental procedure: Panc1 cells were transfected using Lipofectamine™ with unmodified and modified siG12D and a scrambled (non-targeting) siRNA control molecule or were mock transfected (no siRNA). Cell viability was assessed 72 hrs post-transfection by the Methylene Blue (MB) test. Additional groups were transfected as described above, followed by 1 hr of treatment with 10 μM Gemzar®. At the exemplary time point of 72 h, Gemzar® enhanced the effect of siG12D by nearly 10% (FIG. 15). […] Other time points, for example 48h, 72 h, 96 h and 120 h, may be utilized in additional studies.

## SNAI2-2: siRNA targeting SLUG (SNAI2); sense cuggucaagaagcauuucadTdT, antisense ugaaaugcuucuugaccagdTdT; SEQ ID No's 104-105 (sense CUGGUCAAGAAGCAUUUCATT; antisense UGAAAUGCUUCUUGACCAGTT; DNA at 20, 21, other sugars and backbone not given here)
[1]
  reduction in viability: ~50%

## TWIST-2: siRNA targeting TWIST; sense ggugugcguccagccguugdTdT, antisense caacggcuggacgcacaccdTdT; SEQ ID No's 108-109 (sense GGUGUGCGUCCAGCCGUUGTT; antisense CAACGGCUGGACGCACACCTT; DNA at 20, 21, other sugars and backbone not given here)
[1]
  reduction in viability: greater than 50%

## Zeb1-2: siRNA targeting Zeb1; sense cagguguaagcgcagaaagdTdT, antisense cuuucugcgcuuacaccugdTdT; SEQ ID No's 112-113 (sense CAGGUGUAAGCGCAGAAAGTT; antisense CUUUCUGCGCUUACACCUGTT; DNA at 20, 21, other sugars and backbone not given here)
[1]
  reduction in viability: ~50%

## SNAI1-2: siRNA targeting SNAI1; sense augcacauccgaagccacadTdT, antisense uguggcuucggaugugcaudTdT; SEQ ID No's 124-125
[1]
  reduction in viability: greater than 50%

## Goosecoid-1: siRNA targeting Goosecoid; sense agcauguucagcaucgacadTdT, antisense ugucgaugcugaacaugcudTdT; SEQ ID No's 127-128 (sense AGCAUGUUCAGCAUCGACATT; antisense UGUCGAUGCUGAACAUGCUTT; DNA at 20, 21, other sugars and backbone not given here)
[1]
  reduction in viability: ~50%

## TCF3-1: siRNA targeting E12 (TCF3); sense cuccuggacuucagcaugadTdT, antisense ucaugcugaaguccaggagdTdT; SEQ ID No's 131-132 (sense CUCCUGGACUUCAGCAUGATT; antisense UCAUGCUGAAGUCCAGGAGTT; DNA at 20, 21, other sugars and backbone not given here)
[1]
  reduction in viability: greater than 50%

## siG12D: siRNA against K-ras G12D; sense GUUGGAGCUGAUGGCGUAGdTdT, antisense CUACGCCAUCAGCUCCAACdTdT (SEQ ID No: 41-42) (sense GUUGGAGCUGAUGGCGUAGTT; antisense CUACGCCAUCAGCUCCAACTT; DNA at 20, 21, other sugars and backbone not given here)
[2]
  PancO2 cell growth: inhibited PancO2 cell growth to a similar extent as Panc1 cells
[3]
  maximum dose considered as not constituting an acute toxicity risk: 0.32 mg siRNA/kg body weight
[4]
  maximum dose considered as not constituting an acute toxicity risk: 0.32 mg siRNA/kg body weight
[1]
  reduction in viability: ~50%
[5]
  migration in scratch assay: barely migrated
[6]
  IC50: 0.067 nM
[7]
  Akt phosphorylation: induced
[8]
  level of P-Erk: decreased
[9]
  expression of epithelial genes (E-Cadherin): augmented expression
  expression of mesenchymal genes (Zeb1 and Slug): reduced expression
[10]
  inhibition of Panc1 migration: more than 30%
[11]
  level of P-Akt: decreased

## Nc1ccn([C@@H]2O[C@H](CO)[C@@H](O)C2(F)F)c(=O)n1 [Gemzar®, 2′,2′-difluorodeoxycytidine]
[12]
  enhancement of the effect of siG12D on cell viability: ~10%
